In PubChem BioAssay (NCI):
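Grown in 96-well plates, cells were treated for 48 hours with each compound at five concentrations. Insufficient inhibition: endpoint recorded as highest concentration tested. The concentration for full growth arrest is given as TGI.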

Key:
Assay in all cases: NCI-60 cell line screen, 48 h
[1] = system: SNB-19 CNS
[2] = system: ACHN renal
[3] = system: KM12 colon
[4] = system: SN12C renal
[5] = system: SF-295 CNS
[6] = system: U251 CNS
[7] = system: OVCAR-4 ovarian
[8] = system: MALME-3M melanoma
[9] = system: HL-60(TB) leukemia
[10] = system: CAKI-1 renal
[11] = system: K-562 leukemia
[12] = system: NCI-H460 lung
[13] = system: SK-MEL-28 melanoma
[14] = system: MOLT-4 leukemia
[15] = system: EKVX NSCLC
[16] = system: HOP-62 NSCLC
[17] = system: HCC-2998 colon
[18] = system: SNB-75 CNS
[19] = system: NCI-H226 lung
[20] = system: UO-31 renal
[21] = system: NCI/ADR-RES ovarian
[22] = system: UACC-257 melanoma
[23] = system: 786-0 renal
[24] = system: MDA-N
[25] = system: HOP-92 NSCLC
[26] = system: TK-10 renal
[27] = system: UACC-62 melanoma
[28] = system: PC-3 prostate
[29] = system: NCI-H522 lung
[30] = system: COLO 205 colon
[31] = system: HCT-15 colon
[32] = system: BT-549 breast
[33] = system: M14 melanoma
[34] = system: NCI-H23 lung
[35] = system: MCF7 breast
[36] = system: RXF 393 renal
[37] = system: HCT-116 colon
[38] = system: MDA-MB-231 breast
[39] = system: LOX IMVI melanoma
[40] = system: SK-OV-3 ovarian
[41] = system: IGROV1 ovarian
[42] = system: SW-620 colon
[43] = system: T-47D breast
[44] = system: SF-539 CNS
[45] = system: HT29 colon
[46] = system: OVCAR-5 ovarian
[47] = system: A549 NSCLC
[48] = system: OVCAR-3 ovarian
[49] = system: SF-268 CNS
[50] = system: CCRF-CEM leukemia
[51] = system: A498 renal
[52] = system: RPMI-8226 leukemia
[53] = system: OVCAR-8 ovarian
[54] = system: HS 578T breast
[55] = system: SK-MEL-5 melanoma
[56] = system: SR leukemia
[57] = system: DU-145 prostate
[58] = system: MDA-MB-435
[59] = system: SK-MEL-2 melanoma

SMILES: Oc1cc(Cl)cc2cc(Cl)cnc12
- TGI [1]: > 100 µM
- TGI [2]: 21.3 µM
- TGI [3]: > 100 µM
- TGI [4]: > 100 µM
- TGI [5]: 88.7 µM
- TGI [6]: > 100 µM
- TGI [7]: > 100 µM
- TGI [8]: 34.9 µM
- TGI [9]: 0.902 µM
- TGI [10]: 57.7 µM
- TGI [11]: 10.6 µM
- TGI [12]: 14 µM
- TGI [13]: > 100 µM
- TGI [14]: 11.5 µM
- TGI [15]: 10.6 µM
- TGI [16]: 89.9 µM
- TGI [17]: 65.9 µM
- TGI [18]: 94 µM
- TGI [19]: 92.2 µM
- TGI [20]: 20.5 µM
- TGI [21]: 6.67 µM
- TGI [22]: > 100 µM
- TGI [23]: > 100 µM
- TGI [24]: > 100 µM
- TGI [25]: 74.1 µM
- TGI [26]: 76.2 µM
- TGI [27]: 7.81 µM
- TGI [28]: > 100 µM
- TGI [29]: 24.3 µM
- TGI [30]: > 100 µM
- TGI [31]: 27.3 µM
- TGI [32]: > 100 µM
- TGI [33]: > 100 µM
- TGI [34]: 24.4 µM
- TGI [35]: 54.6 µM
- TGI [36]: 48.2 µM
- TGI [37]: > 100 µM
- TGI [38]: 77.2 µM
- TGI [39]: 13.1 µM
- TGI [40]: > 100 µM
- TGI [41]: 22.6 µM
- TGI [42]: > 100 µM
- TGI [43]: 9.95 µM
- TGI [44]: > 100 µM
- TGI [45]: > 100 µM
- TGI [46]: > 100 µM
- TGI [47]: > 100 µM
- TGI [48]: 5.43 µM
- TGI [49]: > 100 µM
- TGI [50]: 6.37 µM
- TGI [51]: 34.5 µM
- TGI [52]: 12.2 µM
- TGI [53]: > 100 µM
- TGI [54]: > 100 µM
- TGI [55]: 53.3 µM
- TGI [56]: 13.6 µM
- TGI [57]: > 100 µM
- TGI [58]: > 100 µM

SMILES: C=CCOC(=O)c1c(C)n([O-])c2cc(Cl)c(Cl)cc2[n+]1=O
- TGI [1]: > 100 µM
- TGI [2]: 50.9 µM
- TGI [3]: 84.7 µM
- TGI [4]: 54.7 µM
- TGI [5]: 86.9 µM
- TGI [6]: > 100 µM
- TGI [7]: 19.1 µM
- TGI [8]: 70.9 µM
- TGI [9]: 48.7 µM
- TGI [10]: 39.6 µM
- TGI [11]: > 100 µM
- TGI [12]: 42.3 µM
- TGI [13]: 30.3 µM
- TGI [14]: 54.4 µM
- TGI [15]: 41.1 µM
- TGI [16]: 57.6 µM
- TGI [17]: 26.5 µM
- TGI [19]: 38.9 µM
- TGI [59]: 39.4 µM
- TGI [20]: 59.8 µM
- TGI [21]: 46.9 µM
- TGI [22]: 37.9 µM
- TGI [23]: 60.1 µM
- TGI [24]: 45.6 µM
- TGI [25]: 53.1 µM
- TGI [26]: 87.2 µM
- TGI [27]: 41.3 µM
- TGI [28]: > 100 µM
- TGI [29]: 28.1 µM
- TGI [30]: 32.6 µM
- TGI [31]: 31.7 µM
- TGI [32]: 75.3 µM
- TGI [33]: 38.8 µM
- TGI [34]: 30.3 µM
- TGI [35]: 60.8 µM
- TGI [37]: 39 µM
- TGI [38]: 55 µM
- TGI [39]: 32.9 µM
- TGI [40]: 59.8 µM
- TGI [41]: 22.8 µM
- TGI [43]: 49.3 µM
- TGI [44]: 45.7 µM
- TGI [45]: 36.8 µM
- TGI [46]: 75.7 µM
- TGI [47]: 87.7 µM
- TGI [48]: 40.8 µM
- TGI [49]: 29.5 µM
- TGI [50]: 45.9 µM
- TGI [51]: 62.6 µM
- TGI [52]: 33.9 µM
- TGI [53]: 41.9 µM
- TGI [54]: 65.9 µM
- TGI [55]: 36.8 µM
- TGI [56]: 13.1 µM
- TGI [57]: > 100 µM
- TGI [58]: 41.2 µM
